Among the data in US9199946B2, “Pyrimidinone carboxamide inhibitors of endothelial lipase” (BRISTOL-MYERS SQUIBB COMPANY, priority 2012, dated 2015) are IC50 values, retold here.

Structures are written as SMILES. Read-outs that look alike come from different tables or passages of the source.

For the assay, the target named is T1, Endothelial lipase (EL) (Homo sapiens, UniProt Q9Y5X9).
T1 construct: HT-1080 cells, which were transformed by RAGE technology (Athersys) to overexpress endogenous EL; endogenous in cells; conditioned medium used as the enzyme source
T1 sequence (Q9Y5X9 21-500): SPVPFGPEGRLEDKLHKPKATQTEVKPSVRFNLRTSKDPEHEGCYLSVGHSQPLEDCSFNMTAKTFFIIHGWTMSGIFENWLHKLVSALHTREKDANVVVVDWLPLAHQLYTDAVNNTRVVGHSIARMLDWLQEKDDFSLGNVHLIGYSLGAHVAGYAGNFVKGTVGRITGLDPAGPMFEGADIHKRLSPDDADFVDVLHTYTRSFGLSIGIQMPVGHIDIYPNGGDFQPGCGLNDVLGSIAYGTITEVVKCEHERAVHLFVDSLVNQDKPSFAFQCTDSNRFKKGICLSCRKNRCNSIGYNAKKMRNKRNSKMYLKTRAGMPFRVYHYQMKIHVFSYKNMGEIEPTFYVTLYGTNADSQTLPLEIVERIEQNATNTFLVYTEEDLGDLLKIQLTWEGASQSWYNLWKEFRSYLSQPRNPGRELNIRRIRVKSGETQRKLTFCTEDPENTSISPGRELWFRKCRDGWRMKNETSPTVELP
Briefly: Endothelial lipase (EL) enzymatic assay with fluorescent substrate A10070 in DMPG vesicles. It counts as biochemical. An outline of the steps: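 EL activity was followed as a fluorescence rate (488/530 nm, reads every 20 s for 10 min, linear slope) on A10070 doped at 0.05 mole fraction into sonicated DMPG vesicles. Compound was first incubated 20 min at 37 °C, pH 8.0 HEPES/CaCl2 buffer, with conditioned media from EL-overexpressing HT-1080 cells.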

Setting [1] is: range observed in the EL assay, read-out: EL IC50 values.
Setting [2] is: conditioned media from HT-1080 cells overexpressing endogenous EL, 20 min preincubation at 37° C., read-out: EL IC50.

With `Nc1c(C(=O)N[C@H]2CC[C@@H](NC(=O)c3cccc(OCc4ccccc4)c3)CC2)[nH]c(=O)[nH]c1=O` [Example 122, 5-amino-N-(cis-4-(3-(benzyloxy)benzamido)cyclohexyl)-2,6-dioxo-1,2,3,6-tetrahydropyrimidine-4-carboxamide], the IC50 (usually the concentration needed to halve the response being measured) under setting [1] was ≤ 10 µM.
Still for that read-out and setting: in the case of `Nc1c(C(=O)N[C@@H]2CCCc3c(NCc4ccccc4)cccc32)[nH]c(=O)[nH]c1=O` [Example 123, (R)-5-amino-N-(5-(benzylamino)-1,2,3,4-tetrahydronaphthalen-1-yl)-2,6-dioxo-1,2,3,6-tetrahydropyrimidine-4-carboxamide] it was ≤ 10 µM; in that of `Nc1c(C(=O)N[C@@H]2CCCc3c(NC(=O)c4ccccc4)cccc32)[nH]c(=O)[nH]c1=O` [Example 124, (R)-5-amino-N-(5-benzamido-1,2,3,4-tetrahydronaphthalen-1-yl)-2,6-dioxo-1,2,3,6-tetrahydropyrimidine-4-carboxamide], ≤ 10 µM.
In the case of `Nc1c(C(=O)N[C@@H]2CCCc3c(NS(=O)(=O)c4ccccc4)cccc32)[nH]c(=O)[nH]c1=O` [Example 125, (R)-5-amino-2,6-dioxo-N-(5-(phenylsulfonamido)-1,2,3,4-tetrahydronaphthalen-1-yl)-1,2,3,6-tetrahydropyrimidine-4-carboxamide], the IC50 under setting [2] stood at 0.329 µM and the IC50 under setting [1] was ≤ 10 µM.
For `Nc1c(C(=O)N[C@@H]2CCCc3c(Nc4ccccc4)cccc32)[nH]c(=O)[nH]c1=O` [Example 126, (R)-5-amino-2,6-dioxo-N-(5-(phenylamino)-1,2,3,4-tetrahydronaphthalen-1-yl)-1,2,3,6-tetrahydropyrimidine-4-carboxamide], the IC50 under setting [1] was ≤ 10 µM.
In the case of `Nc1c(C(=O)NC2CCCC(c3cnn(Cc4ccccc4)c3)C2)[nH]c(=O)[nH]c1=O` (stereo not drawn) [Example 127, 5-amino-N-(3-(1-benzyl-1H-pyrazol-4-yl)cyclohexyl)-2,6-dioxo-1,2,3,6-tetrahydropyrimidine-4-carboxamide], the IC50 is 0.03 µM under setting [2] and ≤ 10 µM under setting [1].
For `Cc1ccc(S(=O)(=O)Nc2ccc(C3CCCC(NC(=O)c4[nH]c(=O)[nH]c(=O)c4N)C3)cc2)cc1` (stereo not drawn) [Example 128, 5-amino-N-(3-(4-(4-methylphenylsulfonamido)phenyl)cyclohexyl)-2,6-dioxo-1,2,3,6-tetrahydropyrimidine-4-carboxamide], in that order: 0.013 µM and ≤ 10 µM.
On to `Nc1c(C(=O)N[C@H]2CC[C@H](C(=O)Nc3ccccc3)C2)[nH]c(=O)[nH]c1=O` [Example 129, 5-amino-2,6-dioxo-N-((1S,3S)-3-(phenylcarbamoyl)cyclopentyl)-1,2,3,6-tetrahydropyrimidine-4-carboxamide], for which the IC50 under setting [1] was ≤ 10 µM.
The same measure, in the same setting: in the case of `Nc1c(C(=O)N[C@@H]2CC[C@H](C(=O)Nc3ccccc3)C2)[nH]c(=O)[nH]c1=O` [Example 130, 5-amino-2,6-dioxo-N-((1R,3S)-3-(phenylcarbamoyl)cyclopentyl)-1,2,3,6-tetrahydropyrimidine-4-carboxamide] it was ≤ 10 µM.
`Nc1c(C(=O)NC2CCC(NC(=O)Cc3nc4ccc(-c5ccccc5)cc4s3)C2)[nH]c(=O)[nH]c1=O` (stereo not drawn) [Example 135, 5-amino-2,6-dioxo-N-(3-(2-(6-phenylbenzo[d]thiazol-2-yl)acetamido)cyclopentyl)-1,2,3,6-tetrahydropyrimidine-4-carboxamide]: the IC50 was 3.68 µM under setting [2] and ≤ 10 µM under setting [1].
The matching figures for `Nc1c(C(=O)N[C@H]2CC[C@@H](C(=O)N[C@@H]3CCCc4c(OCc5ccccc5)cccc43)C2)[nH]c(=O)[nH]c1=O` [Example 136, 5-amino-N-((1S,3R)-3-((R)-5-(benzyloxy)-1,2,3,4-tetrahydronaphthalen-1-ylcarbamoyl)cyclopentyl)-2,6-dioxo-1,2,3,6-tetrahydropyrimidine-4-carboxamide]: 0.019 µM and ≤ 10 µM.
As for `Nc1c(C(=O)N[C@@H]2CCc3c(-c4ccccc4)cccc32)[nH]c(=O)[nH]c1=O` [Example 137, (R)-5-amino-2,6-dioxo-N-(4-phenyl-2,3-dihydro-1H-inden-1-yl)-1,2,3,6-tetrahydropyrimidine-4-carboxamide], the IC50 by setting is: under setting [2], 0.848 µM; under setting [1], ≤ 10 µM.
For the compound `Nc1c(C(=O)N[C@@H]2CCc3ccc(-c4ccccc4)cc32)[nH]c(=O)[nH]c1=O` [Example 138, (R)-5-amino-2,6-dioxo-N-(6-phenyl-2,3-dihydro-1H-inden-1-yl)-1,2,3,6-tetrahydropyrimidine-4-carboxamide], the IC50 was 1.72 µM under setting [2] and ≤ 10 µM under setting [1].
For `Nc1c(C(=O)N[C@H]2CCc3ccc(-c4ccccc4)cc32)[nH]c(=O)[nH]c1=O` [Example 139, (S)-5-amino-2,6-dioxo-N-(6-phenyl-2,3-dihydro-1H-inden-1-yl)-1,2,3,6-tetrahydropyrimidine-4-carboxamide], in that order: 0.028 µM and ≤ 10 µM.
On to `Nc1c(C(=O)NC2CCC(n3cc(-c4ccc(Br)cc4)cn3)C2)[nH]c(=O)[nH]c1=O` (stereo not drawn) [Example 140, 5-amino-N-(3-(4-(4-bromophenyl)-1H-pyrazol-1-yl)cyclopentyl)-2,6-dioxo-1,2,3,6-tetrahydropyrimidine-4-carboxamide], for which the IC50 under setting [1] was ≤ 10 µM.
The same measure, in the same setting: in the case of `COc1ccccc1C1CCC(NC(=O)c2[nH]c(=O)[nH]c(=O)c2N)C1` (stereo not drawn) [Example 141, 5-amino-N-(3-(2-methoxyphenyl)cyclopentyl)-2,6-dioxo-1,2,3,6-tetrahydropyrimidine-4-carboxamide] it was ≤ 10 µM.
Regarding `CC(C)Oc1ccc(C2CCC(NC(=O)c3[nH]c(=O)[nH]c(=O)c3N)C2)cc1` (stereo not drawn) [Example 142, 5-amino-N-(3-(4-isopropoxyphenyl)cyclopentyl)-2,6-dioxo-1,2,3,6-tetrahydropyrimidine-4 carboxamide], the IC50 is, setting by setting: under setting [2], 0.039 µM; under setting [1], ≤ 10 µM.
For the compound `CC(C)(C)COc1ccc(C2CCC(NC(=O)c3[nH]c(=O)[nH]c(=O)c3N)C2)cc1` (stereo not drawn) [Example 143, 5-amino-N-(3-(4-(neopentyloxy)phenyl)cyclopentyl)-2,6-dioxo-1,2,3,6-tetrahydropyrimidine-4-carboxamide], the IC50 under setting [1] is ≤ 10 µM.
In the case of `Nc1c(C(=O)NC2CCC(c3nc4ccc(-c5ccccc5)cc4s3)C2)[nH]c(=O)[nH]c1=O` (stereo not drawn) [Example 144, 5-amino-2,6-dioxo-N-(3-(6-phenylbenzo[d]thiazol-2-yl)cyclopentyl)-1,2,3,6-tetrahydropyrimidine-4-carboxamide], under setting [1], the IC50 was ≤ 10 µM.
Still for that read-out and setting: in the case of `CC(C)COc1ccc(C2CCC(NC(=O)c3[nH]c(=O)[nH]c(=O)c3N)C2)cc1` (stereo not drawn) [Example 145, 5-amino-N-(3-(4-isobutoxyphenyl)cyclopentyl)-2,6-dioxo-1,2,3,6-tetrahydropyrimidine-4-carboxamide] it was ≤ 10 µM.
The same measure, in the same setting: in the case of `Nc1c(C(=O)N[C@@H]2CC[C@@H](C(=O)N[C@H]3CCCc4ccccc43)C2)[nH]c(=O)[nH]c1=O` [Example 146, 5-amino-2,6-dioxo-N-((1R,3R)-3-((S)-1,2,3,4-tetrahydronaphthalen-1-ylcarbamoyl)cyclopentyl)-1,2,3,6-tetrahydropyrimidine-4-carboxamide] it was ≤ 10 µM.
